Each block holds one compound with its values, some of them ahead of it.
Key:
[1] = target: AMP-activated protein kinase alpha-2/beta-2/gamma-2 (Homo sapiens) (UniProt P54646+O43741+Q9UGJ0); test: (§1) Selectivity interaction (LanthaScreen Eu Kinase Binding Assay) EUB0001632a […]; assay type: protein-complex assay; conditions: at 10 µM
[2] = target: AMPK alpha1/beta1/gamma2 (Homo sapiens) (UniProt Q9UGJ0+Q9Y478+Q13131); test: as §1; assay type: protein-complex assay; conditions: at 10 µM
[3] = target: AMPK alpha1/beta1/gamma3 (Homo sapiens) (UniProt Q9Y478+Q13131+Q9UGI9); test: as §1; assay type: protein-complex assay; conditions: at 10 µM
[4] = target: AMPK alpha1/beta2/gamma1 (Homo sapiens) (UniProt O43741+P54619+Q13131); test: as §1; assay type: protein-complex assay; conditions: at 10 µM
[5] = target: AMPK alpha2/beta2/gamma1 (Homo sapiens) (UniProt P54646+O43741+P54619); test: as §1; assay type: protein-complex assay; conditions: at 10 µM
[6] = target: Tyrosine-protein kinase Lck (Homo sapiens, UniProt P06239); test: Selectivity interaction (Enzymatic assay) EUB0001199aCl LCK
[7] = target: Serine/threonine-protein kinase pim-1 (Homo sapiens, UniProt P11309); test: Selectivity interaction (Kinase panel (literature)) EUB0001199aCl PIM1; conditions: at 1 µM
[8] = target: Casein kinase I isoform gamma-3 (Homo sapiens) (UniProt Q9Y6M4); test: Selectivity interaction (KinomeScan (DiscoverX)) EUB0000607a CSNK1G3; conditions: at 10 µM
[9] = target: TRAF2 and NCK-interacting protein kinase (Homo sapiens) (UniProt Q9UKE5); test: Selectivity interaction (KinomeScan (DiscoverX)) EUB0000607a TNIK; conditions: at 10 µM
[10] = target: Epidermal growth factor receptor (Homo sapiens, UniProt P00533); test: Selectivity interaction (Kinase panel (Invitrogen)) EUB0000639a EGFR; conditions: at 200 nM
[11] = target: T1, Ephrin type-A receptor 6 (Homo sapiens) (UniProt Q9UF33); test: Selectivity interaction (KinomeScan (DiscoverX)) EUB0000045b EPHA6
T1 sequence (whole entry): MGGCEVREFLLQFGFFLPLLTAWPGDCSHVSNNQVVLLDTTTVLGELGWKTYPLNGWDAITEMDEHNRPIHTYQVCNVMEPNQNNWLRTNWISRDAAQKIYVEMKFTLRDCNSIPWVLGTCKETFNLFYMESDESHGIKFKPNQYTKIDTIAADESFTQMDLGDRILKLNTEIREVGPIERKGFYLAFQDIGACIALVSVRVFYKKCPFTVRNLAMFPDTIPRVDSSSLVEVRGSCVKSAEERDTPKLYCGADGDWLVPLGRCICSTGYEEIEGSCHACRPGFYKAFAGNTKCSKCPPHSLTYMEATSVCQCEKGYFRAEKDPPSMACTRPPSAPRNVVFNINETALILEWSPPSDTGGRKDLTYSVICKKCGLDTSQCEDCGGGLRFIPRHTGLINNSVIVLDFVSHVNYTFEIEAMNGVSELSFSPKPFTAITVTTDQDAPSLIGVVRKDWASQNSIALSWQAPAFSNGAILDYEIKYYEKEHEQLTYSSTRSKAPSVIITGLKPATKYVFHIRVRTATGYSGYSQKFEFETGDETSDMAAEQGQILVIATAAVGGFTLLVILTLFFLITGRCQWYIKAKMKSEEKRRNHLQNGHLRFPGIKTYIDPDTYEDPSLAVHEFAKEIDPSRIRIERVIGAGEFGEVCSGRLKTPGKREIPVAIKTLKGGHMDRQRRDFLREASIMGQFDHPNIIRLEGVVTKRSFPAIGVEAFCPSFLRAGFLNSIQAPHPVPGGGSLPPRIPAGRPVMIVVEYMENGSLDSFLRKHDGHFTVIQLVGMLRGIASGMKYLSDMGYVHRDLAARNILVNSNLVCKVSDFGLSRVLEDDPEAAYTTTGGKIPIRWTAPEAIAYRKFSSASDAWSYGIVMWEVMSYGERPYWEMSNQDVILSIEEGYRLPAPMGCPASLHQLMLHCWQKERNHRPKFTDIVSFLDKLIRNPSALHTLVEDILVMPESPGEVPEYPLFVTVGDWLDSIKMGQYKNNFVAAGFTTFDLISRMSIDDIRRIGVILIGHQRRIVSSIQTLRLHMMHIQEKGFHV

[12] = target: Serine/threonine-protein kinase SIK3 (Homo sapiens) (UniProt Q9Y2K2); test: Selectivity interaction (KinomeScan (DiscoverX)) EUB0000229b SIK3; conditions: at 10 µM
[13] = target: Serine/threonine-protein kinase 10 (Homo sapiens) (UniProt O94804); test: Selectivity interaction (ActivX KiNativ screen (ex vivo kinase selectivity in human PBMCs)) EUB0001619a STK10; assay type: cell-based; conditions: PBMC, at 1 µM
Sequence of Serine/threonine-protein kinase 10 (Homo sapiens) (O94804 whole entry, looked up): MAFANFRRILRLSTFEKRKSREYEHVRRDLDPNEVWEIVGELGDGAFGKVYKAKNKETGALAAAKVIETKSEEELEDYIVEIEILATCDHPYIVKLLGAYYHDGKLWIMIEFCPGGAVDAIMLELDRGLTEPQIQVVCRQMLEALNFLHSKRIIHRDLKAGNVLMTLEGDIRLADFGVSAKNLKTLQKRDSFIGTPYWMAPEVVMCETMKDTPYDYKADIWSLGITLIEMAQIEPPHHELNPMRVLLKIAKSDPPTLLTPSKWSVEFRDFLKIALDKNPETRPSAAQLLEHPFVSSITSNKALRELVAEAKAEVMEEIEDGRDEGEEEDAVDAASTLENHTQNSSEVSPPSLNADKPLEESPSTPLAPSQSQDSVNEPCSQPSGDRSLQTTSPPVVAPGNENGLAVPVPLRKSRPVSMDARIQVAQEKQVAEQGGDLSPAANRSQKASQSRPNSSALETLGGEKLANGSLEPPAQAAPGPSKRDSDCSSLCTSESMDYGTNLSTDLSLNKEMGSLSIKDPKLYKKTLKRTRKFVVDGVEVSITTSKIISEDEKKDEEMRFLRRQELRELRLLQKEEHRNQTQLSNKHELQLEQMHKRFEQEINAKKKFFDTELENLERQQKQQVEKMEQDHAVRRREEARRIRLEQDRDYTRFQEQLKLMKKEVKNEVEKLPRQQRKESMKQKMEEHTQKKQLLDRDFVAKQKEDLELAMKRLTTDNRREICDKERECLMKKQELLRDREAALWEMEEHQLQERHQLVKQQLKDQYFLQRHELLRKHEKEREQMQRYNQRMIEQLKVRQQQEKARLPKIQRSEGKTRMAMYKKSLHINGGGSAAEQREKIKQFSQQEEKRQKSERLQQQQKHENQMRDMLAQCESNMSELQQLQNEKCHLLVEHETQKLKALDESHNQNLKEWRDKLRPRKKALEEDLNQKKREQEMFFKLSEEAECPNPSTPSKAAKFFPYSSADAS

Sequence of Casein kinase I isoform gamma-3 (Homo sapiens) (Q9Y6M4 whole entry, looked up, canonical isoform): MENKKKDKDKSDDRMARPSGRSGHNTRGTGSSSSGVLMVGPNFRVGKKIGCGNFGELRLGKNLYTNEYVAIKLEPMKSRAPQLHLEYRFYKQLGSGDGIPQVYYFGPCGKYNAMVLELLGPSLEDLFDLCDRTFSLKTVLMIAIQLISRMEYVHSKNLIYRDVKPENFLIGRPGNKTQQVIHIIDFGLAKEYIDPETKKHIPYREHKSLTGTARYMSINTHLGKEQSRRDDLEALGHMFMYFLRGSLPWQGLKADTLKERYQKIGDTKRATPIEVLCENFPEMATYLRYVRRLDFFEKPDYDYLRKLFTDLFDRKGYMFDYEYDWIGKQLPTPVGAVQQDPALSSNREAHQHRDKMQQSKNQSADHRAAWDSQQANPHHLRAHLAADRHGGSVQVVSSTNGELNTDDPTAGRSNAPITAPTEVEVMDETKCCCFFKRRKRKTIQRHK
Sequence of AMPK alpha1/beta1/gamma3 (Homo sapiens) (Q13131 whole entry partner): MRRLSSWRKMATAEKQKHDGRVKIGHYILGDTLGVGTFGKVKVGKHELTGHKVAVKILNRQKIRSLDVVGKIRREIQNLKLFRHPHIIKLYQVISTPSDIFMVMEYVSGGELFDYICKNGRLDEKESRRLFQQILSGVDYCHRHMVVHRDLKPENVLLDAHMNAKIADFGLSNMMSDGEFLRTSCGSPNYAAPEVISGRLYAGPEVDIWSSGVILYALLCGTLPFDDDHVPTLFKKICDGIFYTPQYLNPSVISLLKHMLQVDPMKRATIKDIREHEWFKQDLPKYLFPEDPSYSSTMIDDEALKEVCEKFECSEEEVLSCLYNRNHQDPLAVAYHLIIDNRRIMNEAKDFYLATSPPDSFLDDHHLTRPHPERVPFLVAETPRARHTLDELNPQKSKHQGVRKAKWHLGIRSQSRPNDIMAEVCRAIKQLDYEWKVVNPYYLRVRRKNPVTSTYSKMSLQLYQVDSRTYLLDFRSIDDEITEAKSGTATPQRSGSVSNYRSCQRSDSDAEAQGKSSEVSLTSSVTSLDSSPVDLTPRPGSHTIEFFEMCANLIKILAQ
Sequence of AMPK alpha1/beta1/gamma3 (Homo sapiens) (Q9UGI9 whole entry partner): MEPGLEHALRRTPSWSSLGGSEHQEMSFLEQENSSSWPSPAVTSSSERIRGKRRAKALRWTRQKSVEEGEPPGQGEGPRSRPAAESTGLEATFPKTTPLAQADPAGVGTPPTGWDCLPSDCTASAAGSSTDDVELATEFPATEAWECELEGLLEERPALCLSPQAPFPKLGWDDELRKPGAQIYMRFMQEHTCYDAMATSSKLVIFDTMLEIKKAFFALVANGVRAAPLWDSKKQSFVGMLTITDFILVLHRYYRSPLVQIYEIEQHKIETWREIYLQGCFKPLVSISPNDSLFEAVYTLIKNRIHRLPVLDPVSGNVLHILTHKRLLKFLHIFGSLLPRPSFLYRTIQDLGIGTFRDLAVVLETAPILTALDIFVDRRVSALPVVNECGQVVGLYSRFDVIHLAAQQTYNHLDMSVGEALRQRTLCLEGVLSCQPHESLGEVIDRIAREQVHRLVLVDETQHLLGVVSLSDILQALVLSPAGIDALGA
Sequence of AMPK alpha1/beta1/gamma3 (Homo sapiens) (Q9Y478 2-270 limits assumed): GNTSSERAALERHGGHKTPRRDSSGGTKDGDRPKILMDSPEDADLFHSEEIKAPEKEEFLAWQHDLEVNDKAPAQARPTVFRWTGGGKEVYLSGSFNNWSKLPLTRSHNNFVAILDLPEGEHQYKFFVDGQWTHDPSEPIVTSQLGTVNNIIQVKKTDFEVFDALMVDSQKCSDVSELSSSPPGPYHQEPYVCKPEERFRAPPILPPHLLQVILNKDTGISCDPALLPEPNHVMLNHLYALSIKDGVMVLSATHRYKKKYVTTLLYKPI
Sequence of AMPK alpha1/beta1/gamma2 (Homo sapiens) (Q13131 whole entry partner): as the sequence (Q13131 whole entry partner) above
Sequence of AMPK alpha1/beta1/gamma2 (Homo sapiens) (Q9UGJ0 whole entry): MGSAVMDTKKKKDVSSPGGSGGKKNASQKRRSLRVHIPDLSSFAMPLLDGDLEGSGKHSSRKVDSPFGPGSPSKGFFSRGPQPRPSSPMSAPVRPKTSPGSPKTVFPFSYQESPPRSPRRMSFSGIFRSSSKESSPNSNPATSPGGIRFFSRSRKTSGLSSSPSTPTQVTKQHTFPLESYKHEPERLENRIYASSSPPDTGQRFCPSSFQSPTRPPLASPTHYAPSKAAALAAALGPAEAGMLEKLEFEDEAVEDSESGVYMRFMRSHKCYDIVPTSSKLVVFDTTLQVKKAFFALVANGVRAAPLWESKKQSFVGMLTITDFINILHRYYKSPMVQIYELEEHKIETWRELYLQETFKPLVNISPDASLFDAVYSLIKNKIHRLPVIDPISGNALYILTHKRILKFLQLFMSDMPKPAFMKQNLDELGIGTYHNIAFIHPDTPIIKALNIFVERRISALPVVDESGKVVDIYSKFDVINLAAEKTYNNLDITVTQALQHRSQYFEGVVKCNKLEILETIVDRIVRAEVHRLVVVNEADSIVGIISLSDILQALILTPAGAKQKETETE
Sequence of AMPK alpha1/beta1/gamma2 (Homo sapiens) (Q9Y478 2-270 partner limits assumed): as the sequence (Q9Y478 2-270 limits assumed) above
Sequence of Epidermal growth factor receptor (P00533 whole entry): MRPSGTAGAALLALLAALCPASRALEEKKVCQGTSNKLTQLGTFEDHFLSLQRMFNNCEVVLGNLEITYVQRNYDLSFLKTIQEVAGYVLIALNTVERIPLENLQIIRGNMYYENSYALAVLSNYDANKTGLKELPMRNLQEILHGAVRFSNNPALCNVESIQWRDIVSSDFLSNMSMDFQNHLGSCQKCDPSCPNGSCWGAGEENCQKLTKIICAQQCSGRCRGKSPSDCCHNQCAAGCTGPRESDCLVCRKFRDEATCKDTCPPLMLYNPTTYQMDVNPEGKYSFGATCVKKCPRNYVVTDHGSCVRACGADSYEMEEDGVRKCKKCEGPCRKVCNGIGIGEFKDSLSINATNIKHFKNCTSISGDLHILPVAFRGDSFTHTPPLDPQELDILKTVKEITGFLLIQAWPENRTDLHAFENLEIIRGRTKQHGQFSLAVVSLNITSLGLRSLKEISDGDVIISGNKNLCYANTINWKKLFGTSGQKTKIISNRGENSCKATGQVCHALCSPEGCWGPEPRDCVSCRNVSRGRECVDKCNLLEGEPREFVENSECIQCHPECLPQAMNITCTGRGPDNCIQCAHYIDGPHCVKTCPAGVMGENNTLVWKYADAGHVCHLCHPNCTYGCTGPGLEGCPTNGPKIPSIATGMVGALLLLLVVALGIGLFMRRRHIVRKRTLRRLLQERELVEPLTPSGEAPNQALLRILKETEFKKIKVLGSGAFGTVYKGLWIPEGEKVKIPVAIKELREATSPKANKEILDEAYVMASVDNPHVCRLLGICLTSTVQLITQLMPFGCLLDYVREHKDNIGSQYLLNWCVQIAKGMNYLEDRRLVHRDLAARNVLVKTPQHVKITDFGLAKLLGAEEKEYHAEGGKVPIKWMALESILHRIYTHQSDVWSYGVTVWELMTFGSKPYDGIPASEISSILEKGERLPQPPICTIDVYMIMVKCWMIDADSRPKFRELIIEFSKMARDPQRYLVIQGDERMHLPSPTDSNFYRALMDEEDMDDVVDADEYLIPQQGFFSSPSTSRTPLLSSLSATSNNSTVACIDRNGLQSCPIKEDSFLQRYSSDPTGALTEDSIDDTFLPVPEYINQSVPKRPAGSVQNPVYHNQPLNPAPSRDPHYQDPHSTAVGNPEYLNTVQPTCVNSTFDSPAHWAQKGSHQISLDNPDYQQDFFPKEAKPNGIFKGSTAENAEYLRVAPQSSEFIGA
Sequence of Serine/threonine-protein kinase pim-1 (P11309 whole entry, looked up, canonical isoform): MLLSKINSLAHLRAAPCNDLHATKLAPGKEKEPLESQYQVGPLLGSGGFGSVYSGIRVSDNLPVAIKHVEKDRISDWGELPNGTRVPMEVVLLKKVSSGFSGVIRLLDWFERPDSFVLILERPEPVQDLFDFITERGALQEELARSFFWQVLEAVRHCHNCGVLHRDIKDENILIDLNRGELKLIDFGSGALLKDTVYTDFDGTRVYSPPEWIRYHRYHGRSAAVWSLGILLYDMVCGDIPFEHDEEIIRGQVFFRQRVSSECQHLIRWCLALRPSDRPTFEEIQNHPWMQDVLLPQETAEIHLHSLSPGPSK

% of inhibition [1]: 1.19%
% of inhibition [2]: 0.872%
% of inhibition [3]: 2.78%
% of inhibition [4]: -9.67%
% of inhibition [5]: -4.3%
SMILES: Cn1cc(-n2cnc3c(NCc4nc5cc(Cl)c(Cl)cc5[nH]4)nc(N4CCOCC4)nc32)cn1

IC50 [6]: 10.2 µM
% of inhibition [7]: 4%
SMILES: CN1Cc2nccc(-c3cn(C)nc3-c3ccc(F)cc3)c2C1=O

SMILES: CNC(=O)Nc1ccc(-c2nc(N3CC4CCC(C3)O4)c3cnn(C4CCC5(CC4)OCCO5)c3n2)cc1
% of control [8]: 48%
% of control [9]: 100%

% of inhibition [10]: 3.43%
SMILES: CC[C@@H]1[C@H](F)C(=O)N[C@@H]1COc1nccc2cc(C(N)=O)c(OC)cc12 [ZIMLOVISERTIB]

SMILES: C=CC(=O)Nc1cc(-n2c(=O)ccc3cnc4ccc(-c5ccc(NS(C)(=O)=O)cc5)cc4c32)ccc1C
% of control ([11]; at 1 µM): 96%
% of control ([11]; at 10 µM): 87%

SMILES: COc1cc(N(C)c2ccnc3ccc(C(F)(F)F)cc23)cc(OC)c1OC
% binding [12]: 74%

SMILES: N#Cc1cccc(-c2c[nH]c3ncnc(N4CCOCC4)c23)c1
% of inhibition [13]: 60%
